One assay addresses T1, BiCMKEngA (Bifidobacterium longum, UniProt A0ACD7UKP5).
T1 sequence (A0ACD7UKP5 1-709): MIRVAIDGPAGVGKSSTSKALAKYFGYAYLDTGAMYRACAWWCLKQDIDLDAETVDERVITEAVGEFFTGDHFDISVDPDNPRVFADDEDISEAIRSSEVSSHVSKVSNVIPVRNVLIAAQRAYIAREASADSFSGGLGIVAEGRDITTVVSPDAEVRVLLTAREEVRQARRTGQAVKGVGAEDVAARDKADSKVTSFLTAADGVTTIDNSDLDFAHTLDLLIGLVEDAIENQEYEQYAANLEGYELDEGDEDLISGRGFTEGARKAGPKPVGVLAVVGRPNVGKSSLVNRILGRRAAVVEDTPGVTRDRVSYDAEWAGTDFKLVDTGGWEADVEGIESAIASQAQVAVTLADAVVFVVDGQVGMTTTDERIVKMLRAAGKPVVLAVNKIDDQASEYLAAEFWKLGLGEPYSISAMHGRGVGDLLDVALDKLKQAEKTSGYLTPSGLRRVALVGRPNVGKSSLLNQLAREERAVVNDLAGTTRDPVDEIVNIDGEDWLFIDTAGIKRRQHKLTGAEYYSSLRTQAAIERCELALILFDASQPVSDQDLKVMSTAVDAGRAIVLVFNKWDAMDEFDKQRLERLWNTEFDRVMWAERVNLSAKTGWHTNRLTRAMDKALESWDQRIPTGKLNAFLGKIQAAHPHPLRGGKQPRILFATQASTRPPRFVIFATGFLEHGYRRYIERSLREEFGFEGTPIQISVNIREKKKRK
The experiment in a line: isothermal titration calorimetry. The assay is classed as binding. Conditions: 10 mM Tris pH 8.0, 300 mM NaCl, 50 mM MgCl2, 25 °C; with or without 1 mM CMP. Background: In ITC the heat of successive injections is recorded.

In another assay the target is T2, BiEngA (Bifidobacterium longum, UniProt A0ACD7UKP5).
T2 sequence (A0ACD7UKP5 222-709 limits assumed): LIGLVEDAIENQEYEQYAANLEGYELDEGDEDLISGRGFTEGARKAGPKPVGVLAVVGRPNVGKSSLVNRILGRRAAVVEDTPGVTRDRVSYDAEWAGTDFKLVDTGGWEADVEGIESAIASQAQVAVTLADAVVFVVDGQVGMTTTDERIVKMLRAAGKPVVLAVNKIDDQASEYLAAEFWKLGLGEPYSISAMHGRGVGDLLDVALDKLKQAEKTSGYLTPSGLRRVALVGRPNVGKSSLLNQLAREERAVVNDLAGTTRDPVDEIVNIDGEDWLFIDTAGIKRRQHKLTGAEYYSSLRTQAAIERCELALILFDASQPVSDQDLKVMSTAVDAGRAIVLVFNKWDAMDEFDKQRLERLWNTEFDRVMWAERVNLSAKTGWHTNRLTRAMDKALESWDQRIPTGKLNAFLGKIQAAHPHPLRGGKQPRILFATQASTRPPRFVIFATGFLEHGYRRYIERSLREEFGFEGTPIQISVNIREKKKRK
Nature of the assay: isothermal titration calorimetry. The assay is classed as binding. Conditions: 10 mM Tris pH 8.0, 300 mM NaCl, 50 mM MgCl2, 25 °C.

In the case of `Nc1ncnc2c1ncn2[C@@H]1O[C@H](COP(=O)(O)OP(=O)(O)OP(=O)(O)O)[C@@H](O)[C@H]1O` [ATP], on BiCMKEngA, the KD entry is “Relative dissociation constants of the full length and individual domains for ATP and GTP”.

On to `Nc1nc2c(ncn2[C@@H]2O[C@H](COP(=O)(O)OP(=O)(O)OP(=O)(O)O)[C@@H](O)[C@H]2O)c(=O)[nH]1` [GTP], for which the KD result at BiEngA is “the KD values for GTP, as determined from ITC experiments, were of the similar order”.

Source of the values: publication PMC9791819 (Biochemistry and Biophysics Reports, 2022).
